Experimental data reported in patent US20140248291A1, “Modulation of Cellular Migration” (THE UAB RESEARCH FOUNDATION, priority 2011, published 2014).

Tests used:
[1] = target: T1, BK receptor in guinea-pig ileum preparations (Cavia porcellus, UniProt O70526); settings: read-out: K1 value, receptor binding; cited from earlier work
T1 construct: from tissue; host or cells: guinea-pig ileum preparations
T1 sequence (O70526 1-372): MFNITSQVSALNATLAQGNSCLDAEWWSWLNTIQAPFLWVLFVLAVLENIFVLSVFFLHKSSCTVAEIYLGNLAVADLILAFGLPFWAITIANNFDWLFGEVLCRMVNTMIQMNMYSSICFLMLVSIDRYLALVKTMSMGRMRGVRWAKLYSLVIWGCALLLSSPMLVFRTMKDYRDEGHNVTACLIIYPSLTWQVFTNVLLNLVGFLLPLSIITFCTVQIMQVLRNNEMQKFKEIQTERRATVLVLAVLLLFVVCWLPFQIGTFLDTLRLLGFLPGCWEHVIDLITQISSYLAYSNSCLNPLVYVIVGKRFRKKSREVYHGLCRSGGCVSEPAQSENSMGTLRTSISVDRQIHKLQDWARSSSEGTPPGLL

D54-MG-GFP cells = test: slice invasion assay, acute rat brain slices; format: cell-based, human
Procedure: Experiments were performed on male and female Sprague-Dawley rats and were approved by the University of Alabama Institutional Animal Care and Use Committee. 17-22 days old pups were decapitated. Meninges were stripped, brain was taken out and put in ice-cold bath ACSF. Tissue was sliced using Vibrotome 3000 sectioning system. 300 μm thick slices were let recover in ACSF for 1 hour at room temperature, followed by recovery in ACSF at 37° C. in […] for 1 hour. CD31 antibody (BD Biosciences, Pharminogen, San Diego, Calif.) that labels blood vessels was added during the latter recovery period. Slices were then transferred into transwell migration cell culture inserts (BD Biosciences, San Jose, Calif.) with 8 μm pores that were pretreated with Vitronectin and blocked as described above. 50,000 D54-EGFP MG cells were then seeded on top of the slices and allowed to migrate/invade into the tissue for 2 hours at 37° C. During that period, slices were treated with 1 μM BK, 1 μM BK+5 μM HOE-140 or 5 μM HOE-140 added to the bottom of migration chamber in order to create a concentration gradient, similar to in vitro migration/invasion assay (FIG. 5C). In control experiments, drug treatment was omitted. Following double washes with PBS, slices were fixed in 4% paraformaldehyde overnight at 4° C. The following day, samples were washed three times with PBS and the slices were mounted between two coverslips for imaging on an Olympus Fluoview confocal microscope with 60× objective.
Having established a dependence of migration and BK in vitro, the role of BK signaling in brain slices was examined, where the presence of neurons, glia and endothelial cells resemble the complex environment more reminiscent of the actual invasions of glioma cells in the human brain. To this end, acute brain slices of rat cortex, that can be maintained viable for many hours of investigation, were incubated with CD31 antibody to label blood vessels and seeded with D54-MG-GFP cells. Cells were allowed to migrate and invade for 2 hours in presence or absence of BK and in presence or absence of B2R antagonist HOE-140. The experimental set-up is illustrated in FIG. 5C. Representative confocal images of glioma cells invading into the slice in the presence of BK with and without antagonist HOE-140 added are shown in FIG. 5A, a, A, b and A, c. […] Similarly, most of the cells remained on the slices when treated only with B2R antagonist, as depicted in 40 μm cross-section in FIG. 5A, f. Data were analyzed by counting the number of glioma cells that attached to blood vessels in the presence of BK (77.4±4.1%, 391 cells analyzed), BK and antagonist HOE-140 (19.3±3.4%, 461 cells analyzed) or antagonist HOE-140 (42.7±4.2%, 452 cells analyzed) and compared with control (53.5±6.3%, 403 cells analyzed) where no drugs were added. […] Another important effect observed was that the glioma cells were invading deeper into the tissue in the presence of BK when compared to controls.

D54-EGFP tumor cells = test: tumor invasion/growth in organotypic mouse brain slice cultures; format: cell-based, human
Procedure: Slice cultures were prepared from brains of P13-P16 BALB/c scid mice (Jackson Laboratory). Coronal brain sections 300 μm thick were sliced with a Vibrotome 3000 sectioning system in ice cold artificial saline. Brain slices were transferred into filter inserts with a polycarbonate membrane (Falcon, BD, pore size 0.45 μm). Filters were placed into 6-well plates containing 1 ml of DMEM supplemented with 8% FCS, 0.2 mM glutamine, 100 U/mL penicillin, and […] streptomycin. After overnight repose the medium was changed to cultivation medium containing 25% heat-inactivated horse serum, 50 mM sodium bicarbonate, 2% glutamine, 25% Hank's balanced salt solution, […] insulin (all from Gibco), 2.46 mg/mL glucose (Sigma Aldrich), 0.8 mg/mL vitamin C (Sigma Aldrich), 100 U/mL penicillin, […] streptomycin (Sigma Aldrich), and 5 mM Tris in DMEM (Gibco). At day 3 of culturing approximately 3000 D54-EGFP tumor cells in a volume of 1 μl were implanted per organotypic brain slice. Cells were injected using a 1 μl hemilton syringe mounted to a micromanipulator. The cell suspension was slowly injected over 30 seconds and subsequently the syringe was slowly pulled out. Gliomas were always inoculated into the right cortex. […] The tumor area was determined using ImageJ software (available from rsbweb.nih.gov). Tumor growth was calculated between day 4 and day 11 of culturing.

[2] = tested on: BK-induced hypotension and plasma extravasation; settings: in vivo; cited from earlier work

| Structure (SMILES) | Ki [1] [nM] | glioma cells attached to blood vessels (D54-MG-GFP cells; 1 μM BK + 5 μM HOE-140, 2 h, 461 cells analyzed) [%] | glioma cells attached to blood vessels (D54-MG-GFP cells; 5 μM HOE-140 alone, 2 h, 452 cells analyzed) [%] | cells migrated up to 15 μm (D54-MG-GFP cells; HOE-140 alone) [%] | cells migrated up to 20 μm (D54-MG-GFP cells; HOE-140 alone) [%] | cells migrated up to 25 μm (D54-MG-GFP cells; HOE-140 alone) [%] | cells on top of the slice (D54-MG-GFP cells; HOE-140 alone) [%] | cells migrated up to 15 μm (D54-MG-GFP cells; HOE-140 in addition to BK) [%] | cells migrated up to 20 μm (D54-MG-GFP cells; HOE-140 in addition to BK) [%] | cells migrated up to 25 μm (D54-MG-GFP cells; HOE-140 in addition to BK) [%] | cells remained on the top of the slice (D54-MG-GFP cells; HOE-140 in addition to BK) [%] | tumor growth day 4 to day 11 (D54-EGFP tumor cells; BK and HOE-140 compared to control slices or HOE-140 alone) | migration (spread) of GFP-expressing tumor cells (D54-EGFP tumor cells; HOE-140 (5 μM) and BK (1 μM) compared to BK alone) | BK-induced hypotension [2] | BK-induced plasma extravasation [2] |
| --- | --- | --- | --- | --- | --- | --- | --- | --- | --- | --- | --- | --- | --- | --- | --- |
| N=C(N)NCCCC(NC(=O)[C@H](N)CCCNC(=N)N)C(=O)N1CCC[C@H]1C(=O)N1C[C@H](O)C[C@H]1C(=O)NCC(=O)N[C@@H](Cc1cccs1)C(=O)N[C@@H](CO)C(=O)N1Cc2ccccc2C[C@@H]1C(=O)N1C2CCCCC2C[C@H]1C(=O)N[C@H](CCCNC(=N)N)C(=O)O (stereo partly drawn) [HOE-140, D-Arg-[Hyp^3, Thi^5, D-Tic^7, Oic^8]bradykinin] | 0.798 | 19.3±3.4 | 42.7±4.2 | 29.8 | 14.4 | 3.5 | 51.9 | 25.7 | 15.4 | 6.4 | 47.5 | did not differ significantly | significantly reduced migration |  |  |
| CN(C)CCN(C)CCNC(=O)[C@@H]1CCCN1S(=O)(=O)c1ccc(NNC(=S)NC(c2ccccc2)c2ccccc2)c([N+](=O)[O-])c1 [Bradyzide] |  |  |  |  |  |  |  |  |  |  |  |  |  | blocks | blocks |
